From patent US20230357193A1, “COMPOUND CAPABLE OF INHIBITING AND DEGRADING ANDROGEN RECEPTORS, AND PHARMACEUTICAL COMPOSITIONS AND PHARMACEUTICAL USES THEREOF” (Sichuan Haisco Pharmaceutical Co., Ltd., priority 2020, published 2023) come the findings set out here.

Where two headings read alike, the source gives them in different places.

Data set [1] relates to Prostate cancer cells VCaP. Nature of the data set: Experiment on inhibiting VCaP cell proliferation (CellTiter-Glo, with 0.1 nM R1881). The format is cell-based. The conditions noted are these: Homo sapiens, 168 h, read-out: GI50 for inhibition of VCaP cells. As to the method: Prostate cancer cells VCaP were purchased from ATCC, the cell medium was 1640 + 10% FBS, and the cells were cultured in an incubator at 37° C. under 5% CO2. On day 1, the cells in an exponential phase were collected. With a 1% css-FBS phenol red-free medium, the cell suspension was adjusted to a corresponding concentration, plated into T0 wells at 7500 cells/well and incubated for 3 days. After the incubation was completed, R1881 at a final concentration of 0.1 nM and compounds at different concentrations were added, and the plate was placed in the incubator and incubated for another 7 days. On the day of the addition, T0 plate was detected using a CellTiter-Glo kit and recorded as RLU0. After the incubation was completed, 100 µL of mediums was pipetted from each well. According to operation instructions for a CellTiter-Glo kit (Promega, G7573), 50 µL of CellTiter-Glo reagents, which were already pre-melted and equilibrated to room temperature, were then added to each well, and the mixtures were uniformly mixed for 2 min using a microplate shaker. The plate was placed at room temperature for 10 min, and then […] signal values were measured using a microplate reader (PHERAstar FSX). The results were processed according to formula (1), the inhibition rate of the compound at different concentrations was calculated, and the GI50 value of the compound with an inhibition rate of 50% was calculated using origin9.2 software, wherein RLU compound was the readout of the treated group, and RLUcontrol was the average value of the solvent control group.
(ATP-based viability assays read luminescence as a measure of living cells.)

Data set [2] relates to Prostate cancer cells 22RV1. Nature of the data set: Experiment on inhibiting 22RV1 cell proliferation (CellTiter-Glo). The format is cell-based. The conditions noted are these: Homo sapiens, 168 h, 22RV1 cells, 7 days incubation, read-out: IC50 for inhibition of 22RV1 cells. As to the method:
Prostate cancer cells 22RV1 were purchased from ATCC, the cell medium was RPMI 1640 + 10% FBS, and the cells were cultured in an incubator at 37° C. under 5% CO2. On day 1, the cells in an exponential phase were collected. With a 1% css-FBS phenol red-free medium, the cell suspension was adjusted to a corresponding concentration, plated at 2000 cells/well and incubated overnight. On day 2, compounds at different concentrations were added, and the plate was placed in the incubator and incubated for another 7 days. After the incubation was completed, according to operation instructions for a CellTiter-Glo kit (Promega, G7573), 50 µL of CellTiter-Glo reagents, which were already pre-melted and equilibrated to room temperature, were added to each well, and the mixtures were uniformly mixed for 2 min using a microplate shaker. The plate was placed at room temperature for 10 min, and then […] signal values were measured using a microplate reader (PHERAstar FSX). The results were processed according to formula (2), the inhibition rate of the compound at different concentrations was calculated, and the IC50 value of the compound with an inhibition rate of 50% was calculated using origin9.2 software with DoseResp function, wherein RLUcompound was the readout of the treated group, and RLUcontrol was the average value of the DMSO solvent control group.

A short description of data set [3]: Pharmacokinetic experiment in rats. The format is in vivo. The conditions noted are these: male SD rats, i.g. 20 mg/kg. On the procedure: Objective: in this experiment, a single dose of each test compound was administered to SD rats intravenously and intragastrically, the concentrations of the test compound in plasma of rats were measured, and the pharmacokinetic characteristics and bioavailability of the test compound in rats were evaluated.
Experimental animals: male SD rats, 200-250 g, 6-8 weeks old, 6 rats/compound, purchased from CHENGDU DOSSY EXPERIMENTAL ANIMALS CO., LTD.
Experimental method: on the day of the experiment, six SD rats were randomly grouped according to their body weights. The animals were fasted but with water available for 12 to 14 hours one day before the administration, and were fed 4 h after the administration.
Sampling: before and after the administration, 0.1 mL of blood was taken from the orbit of the rats under isoflurane anesthesia and placed in an EDTAK2 centrifuge tube. Centrifugation was carried out at 5000 rpm at 4° C. for 10 min, and the plasma was collected.
Time points for plasma collection in G1 and G2 groups: 0, 5 min, 15 min, 30 min, 1 h, 2 h, 4 h, 6 h, 8 h, and 24 h.
Before analysis and detection, all samples were stored at -80° C. The samples were analyzed quantitatively by LC-MS/MS.

Where [4] appears, read: VCaP cells, 0.1 nM R1881, 7 days incubation, CellTiter-Glo.

As to `CC(C)(C(=O)Nc1ccc(C#N)c(C(F)(F)F)c1)n1cc(C2CCN(CC3CCN(c4ccc5c(c4)C(=O)N(C4CCC(=O)NC4=O)C5=O)C3)CC2)cn1` (stereo not shown) [Compound 2, N-(4-cyano-3-(trifluoromethyl)phenyl)-2-(4-(1-((1-(2-(2,6-dioxopiperidin-3-yl)-1,3-dioxoisoindolin-5-yl)pyrrolidin-3-yl)methyl)piperidin-4-yl)-1H-pyrazol-1-yl)-2-methylpropanamide], the concentration for 50% growth inhibition (GI50) (in general, the concentration giving 50% growth inhibition) in data set [1] (setting [4]) came to 4.79 µM.
Turning to `CC(C)(C(=O)Nc1ccc(C#N)c(C(F)(F)F)c1)n1cc(C2CCN(C3CCC4(CC3)CN(c3ccc5c(c3)C(=O)N(C3CCC(=O)NC3=O)C5=O)C4)CC2)cn1` (stereo not shown) [Compound 3, N-(4-cyano-3-(trifluoromethyl)phenyl)-2-(4-(1-(2-(2-(2,6-dioxopiperidin-3-yl)-1,3-dioxoisoindolin-5-yl)-2-azaspiro[3.5]nonan-7-yl)piperidin-4-yl)-1H-pyrazol-1-yl)-2-methylpropanamide], the GI50 in data set [1] (setting [4]) was 3.09 µM.
The same measure, in the same setting: the result for `N#Cc1ccc(NC(=O)C2(n3cc(C4CCN(CC5CCN(c6ccc7c(c6)C(=O)N(C6CCC(=O)NC6=O)C7=O)C5)CC4)cn3)CCC2)cc1C(F)(F)F` (stereo not shown) [Compound 4] reads 1.81 µM; that for `CC(C)(C(=O)Nc1ccc(C#N)c(C(F)(F)F)c1)n1cc(C2CCN(c3ccc4c(c3)C(=O)N(C3CCC(=O)NC3=O)C4=O)CC2)cn1` (stereo not shown) [Compound 5, N-(4-cyano-3-(trifluoromethyl)phenyl)-2-(4-(1-(2-(2,6-dioxopiperidin-3-yl)-1,3-dioxoisoindolin-5-yl)piperidin-4-yl)-1H-pyrazol-1-yl)-2-methylpropanamide], 1.91 µM; that for `N#Cc1ccc(NC(=O)C2(n3cc(C#CC4CN(C5CN(c6ccc7c(c6)C(=O)N(C6CCC(=O)NC6=O)C7=O)C5)C4)cn3)CCC2)cc1C(F)(F)F` (stereo not shown) [Compound 6, N-[4-cyano-3-(trifluoromethyl)phenyl]-1-[4-[2-[1-[1-[2-(2,6-dioxo-3-piperidyl)-1,3-dioxo-isoindolin-5-yl]azetidin-3-yl]azetidin-3-yl]ethynyl]pyrazol-1-yl]cyclobutanecarboxamide], 1.69 µM.
On the same count and under the same terms, with `N#Cc1ccc(NC(=O)C2(n3cc(C#CC4CN(c5ccc6c(c5)C(=O)N(C5CCC(=O)NC5=O)C6=O)C4)cn3)CCC2)cc1C(F)(F)F` (stereo not shown) [Compound 7, N-[4-cyano-3-(trifluoromethyl)phenyl]-1-[4-[2-[1-[2-(2,6-dioxo-3-piperidyl)-1,3-dioxo-isoindolin-5-yl]azetidin-3-yl]ethynyl]pyrazol-1-yl]cyclobutanecarboxamide] the figure was 0.47 µM; with `CC(C)(C(=O)Nc1ccc(C#N)c(C(F)(F)F)c1)n1cc(C#CC2CN(C3CN(c4ccc5c(c4)C(=O)N(C4CCC(=O)NC4=O)C5=O)C3)C2)cn1` (stereo not shown) [Compound 8, N-(4-cyano-3-(trifluoromethyl)phenyl)-2-(4-((1′-(2-(2,6-dioxopiperidin-3-yl)-1,3-dioxoisoindolin-5-yl)-[1,3′-biazetidin]-3-yl)ethynyl)-1H-pyrazol-1-yl)-2-methylpropanamide], 3.96 µM.
On to `CC(C)(C(=O)Nc1ccc(C#N)c(C(F)(F)F)c1)n1cc(C#CC2CN(c3ccc4c(c3)C(=O)N(C3CCC(=O)NC3=O)C4=O)C2)cn1` (stereo not shown) [Compound 9, N-(4-cyano-3-(trifluoromethyl)phenyl)-2-(4-((1-(2-(2,6-dioxopiperidin-3-yl)-1,3-dioxoisoindolin-5-yl)azetidin-3-yl)ethynyl)-1H-pyrazol-1-yl)-2-methylpropanamide], for which the IC50 – broadly, the midpoint of a concentration-inhibition curve – in data set [2] was 0.078 µM. Moreover, the GI50 in data set [1] (VCaP) came to 0.18 µM. For the same molecule, the Oral bioavailability result in data set [3] is “Yes”. Also, in data set [3] (rat, po, plasma), the AUC(0-t) (as a rule, exposure summed from dosing to a finite time, without extrapolation to infinity) came out at 45.6 ± 3.73 µg·h/mL and the half-life – broadly, the time needed for the level to fall by half in the phase considered – is 24 ± 10 h.
Consider `CC(C)(C(=O)Nc1ccc(C#N)c(C(F)(F)F)c1)n1cc(C#CC2CCN(c3ccc4c(c3)C(=O)N(C3CCC(=O)NC3=O)C4=O)CC2)cn1` (stereo not shown) [Compound 10, N-(4-cyano-3-(trifluoromethyl)phenyl)-2-(4-((1-(2-(2,6-dioxopiperidin-3-yl)-1,3-dioxoisoindolin-5-yl)piperidin-4-yl)ethynyl)-1H-pyrazol-1-yl)-2-methylpropanamide], for which, in data set [1] (setting [4]), the GI50 is 0.33 µM.
